Results from patent US20210070748A1, “INHIBITORS OF BRUTONS TYROSINE KINASE” (Pharmacyclics LLC, priority 2015, published 2021).

Assays:
Type in all cases: biochemical
ITK = target: T1, ITK (Homo sapiens, UniProt Q08881); assay: Inhibition of a panel of kinases, in vitro HotSpot kinase assay: ITK; conditions: D-compounds panel data; 1 μM ATP
T1 sequence (Q08881 1-620): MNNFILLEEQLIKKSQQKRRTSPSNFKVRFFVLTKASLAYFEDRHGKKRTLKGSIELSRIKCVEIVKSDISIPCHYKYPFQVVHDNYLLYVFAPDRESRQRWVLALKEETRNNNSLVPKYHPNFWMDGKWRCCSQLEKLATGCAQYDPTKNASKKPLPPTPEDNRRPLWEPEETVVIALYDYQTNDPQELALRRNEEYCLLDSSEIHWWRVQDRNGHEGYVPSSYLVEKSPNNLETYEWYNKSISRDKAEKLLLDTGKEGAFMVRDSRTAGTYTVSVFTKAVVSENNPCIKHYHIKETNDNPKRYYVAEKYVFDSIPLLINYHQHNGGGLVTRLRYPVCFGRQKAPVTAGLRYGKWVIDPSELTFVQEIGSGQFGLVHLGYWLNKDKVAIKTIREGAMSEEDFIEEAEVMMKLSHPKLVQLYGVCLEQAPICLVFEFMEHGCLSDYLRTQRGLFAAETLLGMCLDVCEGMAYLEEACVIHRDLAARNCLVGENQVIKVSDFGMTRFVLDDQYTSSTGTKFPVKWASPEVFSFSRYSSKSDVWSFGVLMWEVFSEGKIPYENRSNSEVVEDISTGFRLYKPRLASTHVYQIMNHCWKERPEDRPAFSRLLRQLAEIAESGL
Experimental: (§1) The degree of inhibition of a panel of kinases is determined using the in vitro HotSpot kinase assay (purified enzymes, ^33P-ATP, an appropriate substrate and 1 μM ATP).

EGFR = EGFR (Homo sapiens, UniProt P00533); assay: Inhibition of a panel of kinases, in vitro HotSpot kinase assay: EGFR; conditions: D-compounds panel data; 1 μM ATP
EGFR, sequence (P00533 25-1210): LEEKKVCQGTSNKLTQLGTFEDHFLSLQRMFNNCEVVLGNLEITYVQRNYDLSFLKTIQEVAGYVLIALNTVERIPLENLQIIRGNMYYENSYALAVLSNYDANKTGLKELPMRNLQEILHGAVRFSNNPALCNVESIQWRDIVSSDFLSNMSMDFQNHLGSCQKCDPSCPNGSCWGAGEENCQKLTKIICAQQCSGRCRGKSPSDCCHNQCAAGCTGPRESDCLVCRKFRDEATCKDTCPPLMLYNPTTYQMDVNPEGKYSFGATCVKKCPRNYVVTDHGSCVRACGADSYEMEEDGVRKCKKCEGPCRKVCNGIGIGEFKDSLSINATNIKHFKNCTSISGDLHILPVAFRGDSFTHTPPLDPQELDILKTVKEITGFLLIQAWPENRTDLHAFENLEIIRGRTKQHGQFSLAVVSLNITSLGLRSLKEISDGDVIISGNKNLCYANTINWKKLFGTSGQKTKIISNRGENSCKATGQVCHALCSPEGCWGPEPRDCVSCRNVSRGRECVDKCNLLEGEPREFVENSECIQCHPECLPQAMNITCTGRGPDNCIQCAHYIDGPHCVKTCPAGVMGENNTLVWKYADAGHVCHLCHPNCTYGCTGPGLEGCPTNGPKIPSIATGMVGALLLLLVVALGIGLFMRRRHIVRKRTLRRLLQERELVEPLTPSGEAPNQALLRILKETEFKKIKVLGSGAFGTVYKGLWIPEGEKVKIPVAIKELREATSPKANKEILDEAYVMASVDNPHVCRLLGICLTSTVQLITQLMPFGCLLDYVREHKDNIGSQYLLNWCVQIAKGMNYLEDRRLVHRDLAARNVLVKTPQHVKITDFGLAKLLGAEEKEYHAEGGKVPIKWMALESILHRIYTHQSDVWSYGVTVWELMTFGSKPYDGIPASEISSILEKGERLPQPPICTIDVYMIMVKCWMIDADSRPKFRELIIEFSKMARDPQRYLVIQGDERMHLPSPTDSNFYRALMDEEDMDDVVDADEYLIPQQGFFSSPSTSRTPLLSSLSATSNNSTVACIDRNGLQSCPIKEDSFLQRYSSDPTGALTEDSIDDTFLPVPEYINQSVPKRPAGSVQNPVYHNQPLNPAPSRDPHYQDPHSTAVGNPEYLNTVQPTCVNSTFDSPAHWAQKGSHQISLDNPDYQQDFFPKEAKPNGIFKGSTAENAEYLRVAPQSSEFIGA
Experimental: as §1

JAK3 = target: T2, JAK3 (Homo sapiens, UniProt P52333); assay: Inhibition of a panel of kinases, in vitro HotSpot kinase assay: JAK3; conditions: D-compounds panel data; 1 μM ATP; read-out: IC50 JAK3
T2 sequence (P52333 1-1124): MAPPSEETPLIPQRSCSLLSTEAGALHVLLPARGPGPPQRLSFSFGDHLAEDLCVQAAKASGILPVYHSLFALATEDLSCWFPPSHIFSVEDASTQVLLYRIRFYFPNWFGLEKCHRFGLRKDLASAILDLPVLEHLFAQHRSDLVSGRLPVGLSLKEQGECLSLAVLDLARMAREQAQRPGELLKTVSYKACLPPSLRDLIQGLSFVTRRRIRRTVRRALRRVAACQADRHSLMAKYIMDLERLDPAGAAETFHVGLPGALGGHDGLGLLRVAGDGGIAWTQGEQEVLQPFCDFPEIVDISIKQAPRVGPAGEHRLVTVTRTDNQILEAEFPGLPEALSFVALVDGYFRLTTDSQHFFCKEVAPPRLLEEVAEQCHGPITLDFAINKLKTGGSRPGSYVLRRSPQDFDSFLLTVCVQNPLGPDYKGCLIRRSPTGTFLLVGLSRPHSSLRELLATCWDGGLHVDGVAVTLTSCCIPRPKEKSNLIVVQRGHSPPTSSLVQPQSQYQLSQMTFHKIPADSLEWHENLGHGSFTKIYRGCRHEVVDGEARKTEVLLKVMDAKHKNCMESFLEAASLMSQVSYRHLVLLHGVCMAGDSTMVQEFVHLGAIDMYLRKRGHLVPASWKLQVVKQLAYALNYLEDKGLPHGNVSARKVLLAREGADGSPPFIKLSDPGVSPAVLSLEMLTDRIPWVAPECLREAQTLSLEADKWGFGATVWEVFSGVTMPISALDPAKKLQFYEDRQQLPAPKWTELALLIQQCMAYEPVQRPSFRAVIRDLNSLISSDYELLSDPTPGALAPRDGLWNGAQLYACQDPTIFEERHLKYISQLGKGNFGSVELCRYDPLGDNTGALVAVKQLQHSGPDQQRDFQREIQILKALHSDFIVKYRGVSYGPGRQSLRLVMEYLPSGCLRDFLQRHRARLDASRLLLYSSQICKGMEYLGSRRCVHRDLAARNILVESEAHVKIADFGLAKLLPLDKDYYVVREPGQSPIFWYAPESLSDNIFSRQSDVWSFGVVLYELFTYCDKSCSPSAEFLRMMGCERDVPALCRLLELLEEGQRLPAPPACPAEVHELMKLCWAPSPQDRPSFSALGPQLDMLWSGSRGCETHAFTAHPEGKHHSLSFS

IC50 (ITK) | IC50 (EGFR) | IC50 (JAK3) | SMILES
0.01 to 0.1 µM | 0.1 to 1 µM | 1 to 10 µM | C[C@@H]1[C@H](NC(=O)c2ccc(C3CC3)cc2)CCCN1c1cnc(C(N)=O)c(Nc2cnn(C3CCN(C(=O)C4(C)COC4)CC3)c2)n1 [Example D-289, 5-[(2R,3R)-3-(4-cyclopropylbenzamido)-2-methylpiperidin-1-yl]-3-({1-[1-(3-methyloxetane-3-carbonyl)piperidin-4-yl]-1H-pyrazol-4-yl}amino)pyrazine-2-carboxamide]
> 10 µM | 1 to 10 µM | > 10 µM | C[C@@H]1[C@H](NC(=O)c2ccc(C3CC3)cc2)CCCN1c1cnc(C(N)=O)c(Nc2cnn(C)c2F)n1 [Example D-290, 5-[(2R,3R)-3-(4-cyclopropylbenzamido)-2-methylpiperidin-1-yl]-3-[(5-fluoro-1-methyl-1H-pyrazol-4-yl)amino]pyrazine-2-carboxamide]
0.01 to 0.1 µM | 0.1 to 1 µM | 1 to 10 µM | C[C@@H]1[C@H](NC(=O)c2ccc(C(C)(C)C)cc2)CCCN1c1cnc(C(N)=O)c(Nc2ccc(OC3CCN(C)CC3)cc2)n1 [Example D-291, 5-[(2R,3R)-3-(4-tert-butylbenzamido)-2-methylpiperidin-1-yl]-3-({4-[(1-methylpiperidin-4-yl)oxy]phenyl}amino)pyrazine-2-carboxamide]
0.01 to 0.1 µM | 0.1 to 1 µM | 1 to 10 µM | C[C@@H]1[C@H](NC(=O)c2ccc(C(C)(C)C#N)cc2)CCCN1c1cnc(C(N)=O)c(Nc2ccc(OC3CCN(C)CC3)cc2)n1 [Example D-292, 5-[(2R,3R)-3-[4-(1-cyano-1-methylethyl)benzamido]-2-methylpiperidin-1-yl]-3-({4-[(1-methylpiperidin-4-yl)oxy]phenyl}amino)pyrazine-2-carboxamide]
1 to 10 µM | > 10 µM | 1 to 10 µM | C[C@@H]1[C@H](NC(=O)c2ccc(C3CC3)cc2)CCCN1c1cnc(C(N)=O)c(Nc2cnn(C3CCN(CC(F)(F)F)CC3)c2)n1 [Example D-293, 5-[(2R,3R)-3-(4-cyclopropylbenzamido)-2-methylpiperidin-1-yl]-3-({1-[1-(2,2,2-trifluoroethyl)piperidin-4-yl]-1H-pyrazol-4-yl}amino)pyrazine-2-carboxamide]
0.01 to 0.1 µM | 0.1 to 1 µM | 0.1 to 1 µM | C[C@@H]1[C@H](NC(=O)c2ccc(C3CC3)nc2)CCCN1c1cnc(C(N)=O)c(Nc2ccc(OC3CCN(C)CC3)cc2)n1 [Example D-294, 5-[(2R,3R)-3-(6-cyclopropylpyridine-3-amido)-2-methylpiperidin-1-yl]-3-({4-[(1-methylpiperidin-4-yl)oxy]phenyl}amino)pyrazine-2-carboxamide]
0.1 to 1 µM | 0.1 to 1 µM | 0.1 to 1 µM | CC(=O)N1CCN(c2ccc(Nc3nc(N4CCC[C@@H](NC(=O)c5ccc(C6CC6)cc5)[C@H]4C)cnc3C(N)=O)cc2)CC1 [Example D-295, 3-{[4-(4-acetylpiperazin-1-yl)phenyl]amino}-5-[(2R,3R)-3-(4-cyclopropylbenzamido)-2-methylpiperidin-1-yl]pyrazine-2-carboxamide]
0.1 to 1 µM | 0.1 to 1 µM | 1 to 10 µM | CC(=O)N1CCC(c2ccc(Nc3nc(N4CCC[C@@H](NC(=O)c5ccc(C6CC6)cc5)[C@H]4C)cnc3C(N)=O)cc2)CC1 [Example D-296, 3-{[4-(1-acetylpiperidin-4-yl)phenyl]amino}-5-[(2R,3R)-3-(4-cyclopropylbenzamido)-2-methylpiperidin-1-yl]pyrazine-2-carboxamide]
0.01 to 0.1 µM | 0.1 to 1 µM | 0.1 to 1 µM | C[C@@H]1[C@H](NC(=O)c2ccc(C3CC3)cn2)CCCN1c1cnc(C(N)=O)c(Nc2ccc(OC3CCN(C)CC3)cc2)n1 [Example D-297, 5-[(2R,3R)-3-(5-cyclopropylpyridine-2-amido)-2-methylpiperidin-1-yl]-3-({4-[(1-methylpiperidin-4-yl)oxy]phenyl}amino)pyrazine-2-carboxamide]
